From ChEMBL document CHEMBL4028900, “Design of Novel 3-Pyrimidinylazaindole CDK2/9 Inhibitors with Potent In Vitro and In Vivo Antitumor Efficacy in a Triple-Negative Breast Cancer Model” (J Med Chem, 2017)
pIC50: −log10 of the molar value. ≈ marks a conversion by molar mass, not a printed value.

Columns and labels:
[1] = biological target: CDK2/Cyclin A2 (Homo sapiens) (UniProt P24941+P20248); details: at 500 nM
Description: Inhibition of CDK2/cyclin A (unknown origin) at 500 nM using histone H1 as substrate after 30 mins in presence of [33P]-gamma-ATP relative to control

[2] = biological target: CDK9/cyclin T1 (Homo sapiens) (UniProt O60563+P50750); details: at 500 nM
[3] = biological target: CDK2/Cyclin A2 (Homo sapiens, UniProt P24941); assay: Inhibition of CDK2/cyclin A (unknown origin) using histone H1 as substrate after 30 mins in presence of [33P]-gamma-ATP; type: protein-complex assay
[4] = biological target: CDK9/cyclin T1 (Homo sapiens, UniProt P50750); type: protein-complex assay
[5] = system: HCT-116; assay: Antiproliferative activity against human HCT116 cells after 72 hrs by SRB assay; details: HCT-116, 72 h
[6] = system: SH-SY5Y; assay: Antiproliferative activity against human SH-SY5Y cells after 24 hrs by MTT assay; type: functional, cell-based
[7] = Thermodynamic equilibrium solubility of the compound in water
[8] = Thermodynamic equilibrium solubility of the compound in SGF
[9] = Thermodynamic equilibrium solubility of the compound in PBS
[10] = Thermodynamic equilibrium solubility of the compound in SIF
[11] = system: T47D; assay: Antiproliferative activity against human T47D cells after 72 hrs by SRB assay
[12] = Plasma concentration in BALB/c mouse at 2.5 mg/kg, iv at 1 hr by LC/MS-MS analysis; type: ADME, organism-based
[13] = Plasma concentration in BALB/c mouse at 2.5 mg/kg, iv at 0.25 hrs by LC/MS-MS analysis; type: ADME, organism-based
[14] = Initial concentration in BALB/c mouse at 2.5 mg/kg, iv by LC/MS-MS analysis; type: ADME, organism-based; details: in vivo
[15] = system: MDA-MB-468; assay: Antiproliferative activity against human MDA-MB-468 cells
[16] = Plasma concentration in BALB/c mouse at 2.5 mg/kg, iv at 0.5 hrs by LC/MS-MS analysis; type: ADME, organism-based
[17] = Plasma concentration in BALB/c mouse at 2.5 mg/kg, iv at 4 hrs by LC/MS-MS analysis; type: ADME, organism-based
[18] = system: 4T1; assay: Antiproliferative activity against mouse 4T1 cells after 24 hrs by MTT assay; details: 4T1, 24 h
[19] = AUC (0 to t) in BALB/c mouse at 2.5 mg/kg, iv by LC/MS-MS analysis; type: ADME, organism-based; details: in vivo
[20] = system: BT-549; assay: Antiproliferative activity against human BT549 cells
[21] = Antiproliferative activity against HEK cells; details: Homo sapiens, HEK293
[22] = Clearance in BALB/c mouse at 2.5 mg/kg, iv by LC/MS-MS analysis; type: ADME, organism-based; details: in vivo
[23] = Half life in BALB/c mouse at 2.5 mg/kg, iv by LC/MS-MS analysis; type: ADME, organism-based; details: in vivo
[24] = Plasma concentration in BALB/c mouse at 2.5 mg/kg, iv at […] by LC/MS-MS analysis; type: ADME, organism-based
[25] = AUC (0 to infinity) in BALB/c mouse at 2.5 mg/kg, iv by LC/MS-MS analysis; type: ADME, organism-based; design: dose 2.5 mg/kg, time infinity, route intravenous; details: in vivo
[26] = system: MDA-MB-231; assay: Antiproliferative activity against human MDA-MB-231 cells
[27] = Volume of distribution in BALB/c mouse at 2.5 mg/kg, iv by LC/MS-MS analysis; type: ADME, organism-based; details: in vivo
[28] = system: MCF7; assay: Antiproliferative activity against human MCF7 cells
[29] = Plasma concentration in BALB/c mouse at 2.5 mg/kg, iv at 2 hrs by LC/MS-MS analysis; type: ADME, organism-based

Chain of CDK9/cyclin T1 (O60563 whole entry): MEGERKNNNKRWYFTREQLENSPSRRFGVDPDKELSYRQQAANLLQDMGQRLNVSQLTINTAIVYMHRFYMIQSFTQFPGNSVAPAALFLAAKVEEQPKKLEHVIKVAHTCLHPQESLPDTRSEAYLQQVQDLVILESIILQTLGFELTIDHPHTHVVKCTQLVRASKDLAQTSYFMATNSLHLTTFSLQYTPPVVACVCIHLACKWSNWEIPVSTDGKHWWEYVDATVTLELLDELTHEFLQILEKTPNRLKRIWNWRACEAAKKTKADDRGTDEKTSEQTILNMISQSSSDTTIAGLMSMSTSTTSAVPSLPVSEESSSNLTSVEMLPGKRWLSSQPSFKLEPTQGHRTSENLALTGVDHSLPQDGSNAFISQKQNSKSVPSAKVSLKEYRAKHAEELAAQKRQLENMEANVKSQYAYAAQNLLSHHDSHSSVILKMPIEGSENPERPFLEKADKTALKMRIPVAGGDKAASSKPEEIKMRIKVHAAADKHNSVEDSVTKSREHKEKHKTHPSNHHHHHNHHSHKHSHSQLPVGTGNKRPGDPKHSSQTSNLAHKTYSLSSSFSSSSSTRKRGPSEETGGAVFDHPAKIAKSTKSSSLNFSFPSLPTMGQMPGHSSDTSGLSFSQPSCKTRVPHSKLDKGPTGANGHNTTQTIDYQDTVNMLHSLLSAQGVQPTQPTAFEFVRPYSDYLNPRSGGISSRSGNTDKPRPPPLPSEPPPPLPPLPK
Chain of CDK9/cyclin T1 (P50750 whole entry): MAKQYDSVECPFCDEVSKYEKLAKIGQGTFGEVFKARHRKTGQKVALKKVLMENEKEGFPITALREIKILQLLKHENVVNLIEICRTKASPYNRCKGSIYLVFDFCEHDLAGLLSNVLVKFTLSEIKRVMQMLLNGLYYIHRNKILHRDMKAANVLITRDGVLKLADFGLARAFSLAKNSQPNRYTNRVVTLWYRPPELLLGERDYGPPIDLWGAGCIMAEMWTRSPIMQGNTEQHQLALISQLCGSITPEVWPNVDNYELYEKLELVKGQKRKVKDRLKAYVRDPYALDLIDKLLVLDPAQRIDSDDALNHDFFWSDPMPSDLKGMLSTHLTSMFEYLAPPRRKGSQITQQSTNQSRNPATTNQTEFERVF

Structure (SMILES): Cc1cccc(-c2cnc3[nH]cc(-c4ccnc(N)n4)c3c2)c1
- inhibition [1]: 84.8%
- inhibition [2]: 82.6%

Structure (SMILES): c1cnc2[nH]cc(-c3ccnc(N4CCCC4)n3)c2c1
- pIC50 [3]: 6.80
- inhibition [1]: 78.3%
- inhibition [2]: 77.2%
- pIC50 [4]: 6.35

Structure (SMILES): Nc1nccc(-c2cn(S(=O)(=O)c3ccc4c(c3)OCCO4)c3ncccc23)n1
- inhibition [1]: 48.7%
- inhibition [2]: 52.2%

Structure (SMILES): c1ccc2c(CCNc3nccc(-c4c[nH]c5ncccc45)n3)c[nH]c2c1
- pIC50 [3]: 8.00
- inhibition [1]: 89.7%
- inhibition [2]: 88%
- pIC50 [4]: 7.28

Structure (SMILES): Cn1cncc1S(=O)(=O)n1cc(-c2ccnc(N)n2)c2cccnc21
- inhibition [1]: 55.2%
- inhibition [2]: 50.3%

Structure (SMILES): COc1ccc(CCNc2nccc(-c3c[nH]c4ncccc34)n2)cc1OC
- pIC50 [3]: 7.66
- inhibition [1]: 89.2%
- inhibition [2]: 85%
- pIC50 [4]: 7.23

Structure (SMILES): Nc1nccc(-c2c[nH]c3ncc(-c4ccc(OC(F)(F)F)cc4)cc23)n1
- pIC50 [5]: 5.82
- pIC50 [6]: 6.40

Structure (SMILES): c1ccc(CCNc2nccc(-c3c[nH]c4ncccc34)n2)cc1
- pIC50 [3]: 8.00
- pIC50 [5]: 6.25
- solubility thermodynamic [7]: < 5 µg/mL
- solubility thermodynamic [8]: 1500 µg/mL (≈ 4760 µM)
- solubility thermodynamic [9]: < 5 µg/mL
- inhibition [1]: 92.5%
- inhibition [2]: 92.4%
- solubility thermodynamic [10]: > 5 µg/mL
- pIC50 [4]: 7.70

Structure (SMILES): c1cnc2[nH]cc(-c3ccnc(N4CCOCC4)n3)c2c1
- pIC50 [3]: 6.64
- inhibition [1]: 73.3%
- inhibition [2]: 72.9%
- pIC50 [4]: 6.19

Structure (SMILES): c1cnc2[nH]cc(-c3ccnc(N4CCCCC4)n3)c2c1
- pIC50 [3]: 6.52
- inhibition [1]: 74%
- inhibition [2]: 71.9%
- pIC50 [4]: 6.10

Structure (SMILES): Nc1nccc(-c2c[nH]c3ncc(-c4ccc(Cl)cc4)cc23)n1
- pIC50 [5]: 6.30
- solubility thermodynamic [7]: 57.4 µg/mL (≈ 178 µM)
- solubility thermodynamic [8]: 74.4 µg/mL (≈ 231 µM)
- solubility thermodynamic [9]: 120 µg/mL (≈ 373 µM)
- solubility thermodynamic [10]: 113 µg/mL (≈ 352 µM)
- pIC50 [6]: 6.05

Structure (SMILES): Nc1nccc(-c2c[nH]c3ncc(-c4cccc(C(F)(F)F)c4)cc23)n1
- pIC50 [3]: 8.00
- inhibition [1]: 93.4%
- inhibition [2]: 86.5%
- pIC50 [4]: 7.33

Structure (SMILES): Nc1nccc(-c2cn(S(=O)(=O)c3ccc(C(F)(F)F)cc3)c3ncccc23)n1
- inhibition [1]: 28.4%
- inhibition [2]: 50.9%

Structure (SMILES): Nc1nccc(-c2c[nH]c3ncc(-c4ccsc4)cc23)n1
- pIC50 [3]: 9.00
- pIC50 [5]: 6.22
- inhibition [1]: 95.1%
- inhibition [2]: 93.5%
- pIC50 [6]: 5.48
- pIC50 [4]: 7.46

Structure (SMILES): CN1CCN(c2nccc(-c3c[nH]c4ncccc34)n2)CC1
- pIC50 [3]: 6.46
- inhibition [1]: 71.6%
- inhibition [2]: 70.5%
- pIC50 [4]: 6.15

Structure (SMILES): Nc1nccc(-c2c[nH]c3ncccc23)n1 [MERIOLIN 1]
- pIC50 [11]: 5.10
- concentration at 1 h [12]: 4.5 ng/mL
- concentration at 0.25 h [13]: 34.1 ng/mL
- C0 [14]: 230 ng/mL
- pIC50 [5]: 5.74
- solubility thermodynamic [7]: 95.8 µg/mL (≈ 454 µM)
- solubility thermodynamic [8]: 352 µg/mL (≈ 1670 µM)
- pIC50 [15]: 4.89
- concentration at 0.5 h [16]: 12.6 ng/mL
- concentration at 4 h [17]: 0.8 ng/mL
- pIC50 [18]: 5.60
- AUC(0-t) [19]: 46.2 ng·h/mL
- pIC50 [20]: 5.15
- pIC50 [21]: 4.44
- clearance [22]: 897 mL/min/kg
- solubility thermodynamic [9]: 89 µg/mL (≈ 421 µM)
- half-life [23]: 28.2 min
- concentration at […] [24]: 167 ng/mL
- solubility thermodynamic [10]: 87.7 µg/mL (≈ 415 µM)
- AUC(0-inf) [25]: 46.9 ng·h/mL
- pIC50 [26]: 5.22
- Vd [27]: 36.5 L/kg
- pIC50 [28]: 5.22
- concentration at 2 h [29]: 1 ng/mL
- pIC50 [4]: 7.52
